Experimental findings from US11964988B2, “Fused heterocyclic compounds as RET kinase inhibitors” (ARRAY BIOPHARMA INC., priority 2018, dated 2024) are described below.

One test concerns the target RET kinase V804M (Homo sapiens, UniProt P07949, V804M). The test can be described thus: RET Enzyme Assay (CisBio HTRF KinEASE-TK), V804M. Type of test: biochemical. The following applies: read-out: RET V804M Enz FRET IC50.
Test [1] addresses T1, HEK-293 cells expressing a Kif5b-RET fusion protein (Homo sapiens, UniProt P07949).
T1 construct: KIF5B (N-terminal portion incl. coiled-coil); expressed in transfected cells; host or cells: HEK-293; the other entry of the earlier key: KIF5B (P33176, Kinesin-1 heavy chain)
T1 sequence (P07949 713-1063 limits assumed): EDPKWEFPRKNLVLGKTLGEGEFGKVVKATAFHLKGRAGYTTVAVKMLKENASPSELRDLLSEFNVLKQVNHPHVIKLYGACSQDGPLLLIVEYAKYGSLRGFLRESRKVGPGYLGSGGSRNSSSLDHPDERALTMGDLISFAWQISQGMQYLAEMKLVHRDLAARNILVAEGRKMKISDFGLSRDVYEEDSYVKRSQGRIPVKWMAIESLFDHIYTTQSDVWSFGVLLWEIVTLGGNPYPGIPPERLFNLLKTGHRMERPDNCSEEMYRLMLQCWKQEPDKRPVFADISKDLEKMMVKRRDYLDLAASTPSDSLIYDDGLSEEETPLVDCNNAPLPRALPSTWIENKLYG
The test can be described thus: RET Cell Assay (phospho-RET Tyr1062). Type of test: cell-based. The following applies: HEK-293 Kif5b-RET, 1 hour incubation, phospho-RET normalized to GAPDH; read-out: KIF5B-RET pTYR1062 Cell IC50. Summed up:
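Kif5b-RET HEK-293 cells treated 1 hour with compound in DMEM (0.5% DMSO final), then fixed and immunostained for phospho-RET Tyr1062, normalized to GAPDH by infrared fluorescence. IC50 where the 4-parameter logistic fit of POC crosses 50.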

The target of test [2] is T2, HEK-293 cells expressing a G810R mutant RET Kif5b-RET fusion protein (Homo sapiens, UniProt P07949, G810R).
T2 construct: KIF5B (N-terminal portion incl. coiled-coil); expressed in transfected cells; host or cells: HEK-293; the other entry of the earlier key: KIF5B (P33176, Kinesin-1 heavy chain)
T2 sequence (P07949 713-1063 G810R limits assumed): T1 sequence (P07949 713-1063 limits assumed) with G98R
The test can be described thus: RET G810R Mutant Cell Assay (phospho-RET Tyr1062). Type of test: cell-based. The following applies: HEK-293 Kif5b-RET G810R, 1 hour incubation, phospho-RET normalized to GAPDH. The essentials: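 Engineered HEK-293 cells were treated 1 h with compound in DMEM, 0.5% DMSO final, then fixed, permeabilized and immunostained for phospho-RET Tyr1062 and GAPDH. In-cell fluorescence pRET signal was normalized to GAPDH; IC50 taken from a 4-parameter logistic fit of percent of control at 50 POC.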

Test [3] addresses T3, HEK-293 cells expressing a G810S mutant RET Kif5b-RET fusion protein (Homo sapiens, UniProt P07949, G810S).
T3 construct: KIF5B (N-terminal portion incl. coiled-coil); expressed in transfected cells; host or cells: HEK-293
T3 sequence (P07949 713-1063 G810S limits assumed): T1 sequence (P07949 713-1063 limits assumed) with G98S
Briefly: RET G810S Mutant Cell Assay (phospho-RET Tyr1062). The following applies: HEK-293 Kif5b-RET G810S, 1 hour incubation, phospho-RET normalized to GAPDH. Type of test: cell-based. As to the method: The cellular potency of compounds inhibiting RET kinase were determined in HEK-293 cells expressing a G810R or G810S mutant RET Kif5b-RET fusion protein. Briefly, HEK-293 cells expressing a G810R or G810S mutant RET Kif5b-RET fusion protein were plated at 50K cells/well in 96 well poly-D-Lysine coated plates the day prior to the assay. The cells were incubated for 1 hour with test compound in DMEM (Dulbecco's Modified Eagle Medium) at a final DMSO concentration of 0.5%. […] After 1 hour the media was removed, the cells were fixed with 3.8% formaldehyde for 20 min, washed with PBS, and permeabilized for 10 min with 100% methanol. The plates were then washed with PBS-0.05% Tween20, and blocked with LI-COR Blocking solution (LI-COR Catalog No. 927-40000) for 1 hour. Plates were washed with PBS-0.05% Tween20, then incubated with anti-phospho-RET (Tyr1062) (Santa Cruz Catalog No. sc-20252-R) antibody and anti-GAPDH (Millipore Catalog No. MAB374) antibody for 2 hours. The plates were washed with PBS-0.05% Tween20, and incubated with anti-rabbit 680 (Molecular Probes Catalog No. A21109) and anti-mouse 800 (LI-COR Catalog No. 926-32210) secondary antibodies for 1 hour. All antibodies were diluted in LI-COR Block containing 0.05% Tween. The plates were washed with PBS-0.05% Tween20,100 μL PBS was added to each well, and the plates were read on a LI-COR Aerius fluorescent plate reader. The phospho-RET signal was normalized to the GAPDH signal. […] The POC values are fit to a 4 parameter logistic curve. The IC50 value is the point where the curve crosses 50 POC.

For another test, the target named is RET kinase Wild Type (Homo sapiens, UniProt P07949). The test can be described thus: biochemical.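 Also: HTRF kinase activity assay on RET enzyme, 1 h reaction at 22 °C, dual-wavelength readout as percent of control, DMSO-only wells as 100%, pre-quenched reactions as 0%.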
RET kinase Wild Type, sequence (P07949 29-1114): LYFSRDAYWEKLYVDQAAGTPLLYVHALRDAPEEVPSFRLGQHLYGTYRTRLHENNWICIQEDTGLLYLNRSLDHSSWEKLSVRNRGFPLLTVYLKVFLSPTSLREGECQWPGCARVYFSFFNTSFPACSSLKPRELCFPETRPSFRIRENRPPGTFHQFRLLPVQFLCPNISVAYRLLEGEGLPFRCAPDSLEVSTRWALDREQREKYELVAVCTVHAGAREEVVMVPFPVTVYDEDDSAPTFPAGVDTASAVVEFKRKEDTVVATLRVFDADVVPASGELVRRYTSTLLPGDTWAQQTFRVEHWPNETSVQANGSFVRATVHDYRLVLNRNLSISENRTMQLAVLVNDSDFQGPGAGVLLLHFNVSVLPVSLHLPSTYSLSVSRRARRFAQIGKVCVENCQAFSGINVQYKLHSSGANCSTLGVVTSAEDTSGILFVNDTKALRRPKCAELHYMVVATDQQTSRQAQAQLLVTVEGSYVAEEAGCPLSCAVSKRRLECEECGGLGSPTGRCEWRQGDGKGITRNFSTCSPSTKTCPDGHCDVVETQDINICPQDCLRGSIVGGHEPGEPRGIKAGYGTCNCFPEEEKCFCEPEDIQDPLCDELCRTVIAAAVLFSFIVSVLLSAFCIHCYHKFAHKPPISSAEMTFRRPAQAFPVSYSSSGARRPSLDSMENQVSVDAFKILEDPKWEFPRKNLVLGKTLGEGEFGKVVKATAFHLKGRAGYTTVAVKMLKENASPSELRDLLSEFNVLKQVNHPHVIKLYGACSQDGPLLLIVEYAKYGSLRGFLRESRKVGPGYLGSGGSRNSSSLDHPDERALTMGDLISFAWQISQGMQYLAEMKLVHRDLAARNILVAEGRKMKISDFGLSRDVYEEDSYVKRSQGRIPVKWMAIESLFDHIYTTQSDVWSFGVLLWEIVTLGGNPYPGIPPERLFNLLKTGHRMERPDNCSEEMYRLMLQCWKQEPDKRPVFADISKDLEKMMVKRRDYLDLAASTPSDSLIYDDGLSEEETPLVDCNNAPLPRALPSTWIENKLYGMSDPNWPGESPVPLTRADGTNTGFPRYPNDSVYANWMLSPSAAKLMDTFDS
Another test concerns the target G810R mutant RET kinase (Homo sapiens, UniProt P07949, G810R). The test can be described thus: biochemical.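 Also: HTRF KinEASE-TK enzymatic assay with 1 nM recombinant RET G810R, 1 h at 22 °C, dual-wavelength ratiometric readout, 100% control without compound, 0% from pre-quenched reactions.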
In the next test the target is G810S mutant RET kinase (Homo sapiens, UniProt P07949, G810S). The test can be described thus: biochemical.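 Also: HTRF KinEASE-TK kinase assay with recombinant enzyme, 1 h at 22 °C, dual-wavelength ratiometric read-out, percent of control (DMSO-only = 100, pre-quenched reaction = 0).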
G810S mutant RET kinase, sequence (P07949 29-1114 G810S): as the sequence (P07949 29-1114) above, with G782S counted along it

Numbering of substitutions follows the chain as printed.

G810R mutant RET kinase, sequence (P07949 29-1114 G810R): as the sequence (P07949 29-1114) above, with G782R counted along it
RET kinase V804M, sequence (P07949 29-1114 V804M): as the sequence (P07949 29-1114) above, with V776M counted along it
Method for G810R mutant RET kinase: (§1) The potency of compounds inhibiting several different RET kinase forms (Wild Type, V804M, G810R, & G810S) were determined using CisBio's HTRF® KinEASE™-TK assay technology. […] After a 1 hour incubation at 22° C., the extent of reaction was determined using a PerkinElmer EnVision multimode plate reader via HTRF dual wavelength detection, and the percent of control (POC) was calculated using a ratiometric emission factor. One hundred POC was determined using DMSO only samples (no compound present), and 0 POC was determined using pre-quenched control reactions.
(§2) The potency of a compound inhibiting G810R or G810S mutant RET kinase was determined using CisBio's HTRF® KinEASE™-TK assay technology. The assays contained G810R or G810S mutant RET produced at Array Biopharma, Inc. (1 nM enzyme). […] After a 1-h incubation at 22° C., the extent of reaction was determined using a PerkinElmer EnVision multimode plate reader via HTRF dual wavelength detection, and the percent of control (POC) was calculated using a ratiometric emission factor. One hundred POC was determined using no test compounds, and 0 POC was determined using pre-quenched control reactions.
Method for G810S mutant RET kinase: as §1, §2

For the molecule `CC(C)n1c2c(c3c(N)ncnc31)-c1noc(C3CC3)c1C(O)CC2` (racemic) [Example 29, 11-amino-3-cyclopropyl-7-isopropyl-4,5,6,7-tetrahydroisoxazolo[4″,3″:6′,7′]cyclohepta[1′,2′:4,5]pyrrolo[2,3-d]pyrimidin-4-ol], the IC50 at RET kinase V804M turned out to be 0.026 µM; in test [1], 0.012 µM; in test [2] it was 0.071 µM; in test [3], 0.037 µM; on RET kinase Wild Type, 0.008 µM; on G810R mutant RET kinase, 0.027 µM. The molecule further displayed an IC50 against G810S mutant RET kinase of 0.025 µM.

As to `CC(C)n1c2c(c3c(N)ncnc31)-c1noc(C3CC3)c1S(=O)(=O)NC2` [Example 21, 11-amino-3-cyclopropyl-7-isopropyl-6,7-dihydro-5H-isoxazolo[3,4-f]pyrimido[5′,4′:4,5]pyrrolo[2,3-d][1,2]thiazepine 4,4-dioxide 2,2,2-trifluoroacetate], the IC50 worked out at 0.044 µM on RET kinase V804M; 0.028 µM in test [1]; 0.087 µM in test [2]; 0.083 µM in test [3]; 0.009 µM against RET kinase Wild Type; 0.031 µM at G810R mutant RET kinase.

Take `COC(=O)c1ccc2cc3n(c2c1)C(=O)NCc1c-3c2c(N)ncnc2n1C(C)C` [Example 70, Methyl 1-amino-5-isopropyl-8-oxo-5,6,7,8-tetrahydropyrimido[5″,4″:4′,5′]pyrrolo[2′,3′:5,6][1,3]diazepino[1,7-a]indole-11-carboxylate]: the IC50 in test [1] was 0.166 µM; in test [2], 0.607 µM; in test [3] it was 0.388 µM; against RET kinase Wild Type it was 0.092 µM; on G810R mutant RET kinase it was 0.183 µM; on G810S mutant RET kinase, 0.312 µM.

Turning to `CC(C)n1c2c(c3c(N)ncnc31)-c1cc3ccc(C(=O)NC4CC4)cc3n1C(=O)NC2` [Example 72, 1-amino-N-cyclopropyl-5-isopropyl-8-oxo-5,6,7,8-tetrahydropyrimido[5″,4″:4′,5′]pyrrolo[2′,3′:5,6][1,3]diazepino[1,7-a]indole-11-carboxamide], the IC50 in test [1] amounted to 3.96 µM; in test [2], 16.2 µM; in test [3] it was 6.35 µM; at RET kinase Wild Type, 0.512 µM; against G810R mutant RET kinase it was 3.09 µM; against G810S mutant RET kinase, 2.63 µM.

For `CC(C)n1c2c(c3c(N)ncnc31)-c1cc3ccc(C#N)cc3n1C(=O)NC2` [Example 76, 1-amino-5-isopropyl-8-oxo-5,6,7,8-tetrahydropyrimido[5″,4″:4′,5′]pyrrolo[2′,3′:5,6][1,3]diazepino[1,7-a]indole-11-carbonitrile], the IC50 in test [1] was found to be 0.143 µM; in test [2], 0.845 µM; in test [3], 0.57 µM; on RET kinase Wild Type it was 0.117 µM; on G810R mutant RET kinase it was 0.118 µM; against G810S mutant RET kinase, 0.292 µM.

Take `CC(C)n1c2c(c3c(N)ncnc31)-c1cc3cc(Cl)ccc3n1C(=O)NC2` [Example 77, 1-amino-12-chloro-5-isopropyl-6,7-dihydropyrimido[5″,4″:4′,5′]pyrrolo[2′,3′: 5,6][1,3]diazepino[1,7-a]indol-8(5H)-one]: the IC50 was 0.013 µM in test [1]; 0.089 µM in test [2]; 0.032 µM in test [3]; 0.027 µM against RET kinase Wild Type; 0.135 µM on G810R mutant RET kinase; 0.073 µM against G810S mutant RET kinase.

Turning to `CC(C)n1c2c(c3c(N)ncnc31)-c1cc3c(F)cccc3n1C(=O)NC2` [Example 83, 1-amino-13-fluoro-5-isopropyl-6,7-dihydropyrimido[5″,4″:4′,5′]pyrrolo[2′,3′: 5,6][1,3]diazepino[1,7-a]indol-8(5H)-one], the IC50 came to 0.293 µM in test [1]; 1.06 µM in test [2]; 0.812 µM in test [3]; 0.063 µM at RET kinase Wild Type; 0.058 µM on G810R mutant RET kinase; 0.097 µM against G810S mutant RET kinase.

For the molecule `COCCn1ccc(NC(=O)c2ccc3cc4n(c3c2)CCCc2c-4c3c(N)ncnc3n2C(C)C)n1` [Example 96, 1-amino-5-isopropyl-N-(1-(2-methoxyethyl)-1H-pyrazol-3-yl)-5,6,7,8-tetrahydropyrimido[5″,4″:4′,5′]pyrrolo[3′,2′: 3,4]azepino[1,2-a]indole-11-carboxamide], the half-inhibitory concentration (IC50) was 0.085 µM in test [1]; 0.142 µM in test [2]; 0.116 µM in test [3]; 0.027 µM on RET kinase Wild Type; 0.187 µM on G810R mutant RET kinase; 0.393 µM against G810S mutant RET kinase.

Take `CC(C)n1c2c(c3c(N)ncnc31)-c1cc3ccc(C(=O)Nc4ccn(CCC(F)(F)F)n4)cc3n1CCC2` [Example 101, 1-amino-5-isopropyl-N-(1-(3,3,3-trifluoropropyl)-1H-pyrazol-3-yl)-5,6,7,8-tetrahydropyrimido[5″,4″:4′,5′]pyrrolo[3′,2′: 3,4]azepino[1,2-a]indole-11-carboxamide]: the IC50 came out at 0.043 µM in test [1]; 0.075 µM in test [2]; 0.062 µM in test [3]; 0.135 µM on RET kinase Wild Type; 1.42 µM against G810R mutant RET kinase; 0.805 µM at G810S mutant RET kinase.

Consider `CC(=O)Nc1ccc2cc3n(c2c1)CCCc1c-3c2c(N)ncnc2n1C(C)C` [Example 139, N-(1-amino-5-isopropyl-5,6,7,8-tetrahydropyrimido[5″,4″:4′,5′]pyrrolo[3′,2′:3,4]azepino[1,2-a]indol-11-yl)acetamide], for which the IC50 is 0.016 µM in test [1]; 0.049 µM in test [2]; 0.036 µM in test [3]; 0.075 µM at RET kinase Wild Type; 1.03 µM at G810R mutant RET kinase; 0.474 µM against G810S mutant RET kinase.

The IC50 is the concentration needed to halve the response being measured.
